Measured values: article PMC4355590, “A Kinetic Study of the Main Guaco Metabolites Using Syrup Formulation and the Identification of an Alternative Route of Coumarin Metabolism in Humans” (PLoS ONE, 2015)

Assays:
[1] = Stability of stock solutions and working standard solutions; assay type: physicochemical; conditions: for Mean recovery: n = 8, ± SD
Procedure: The stability of the stock solutions (1 mg/mL of each analyte and ISs) was evaluated after 30 days of storage in a refrigerator (4°C, amber bottles). The stored solutions were diluted with acetonitrile/water (70:30 v/v) to obtain the same concentration levels as the short-term stability assay. The stability of the stock solutions was evaluated by comparing the mean recovery of the analytes and IS obtained from stored samples to the mean values obtained with freshly prepared samples, at the same concentration levels. The stability of the working standard solutions was assessed using a procedure similar to that described for stock solution stability. […]

[2] = Stability in human plasma: short-term, freeze-thaw and long-term; assay type: in vitro ADME; conditions: for Mean recovery: n = 8, ± SD
Procedure: The samples were vortexed for 2 min and then were kept at room temperature for 8 h. Afterward, the samples were spiked with 50 μL of IS solution and were vortexed (2 min) and submitted to the extraction procedures. The short-term stability was evaluated by comparing the mean recovery of the analytes and the IS obtained from stored samples with the mean values obtained with freshly prepared samples, at same concentration levels.
(§1) Freeze-thawed, post-preparative and long-term stability assay samples were prepared and evaluated similar to the short-term stability samples. However, the freeze thawing assay was assessed after undergoing three freeze-thaw cycles (one freeze-thaw cycle per day on three consecutive days) and post-preparative assay, maintaining the extracted samples for 24 hours in the Sample Manager (20°C, transparent vials). The long-term stability of human plasma stored at -40°C was assessed at the end of the study (60 days).

[3] = Post-preparative stability of extracted samples; assay type: physicochemical; conditions: for Mean recovery: n = 8, ± SD
Procedure: as §1

[4] = Initial screening of bioavailability: 60 mL of guaco syrup orally; assay type: in vivo, human; conditions: 60 mL guaco syrup (17.6 mg COU, 1.1 mg OCA, 8.9 mg KAU), up to 600 min
Procedure: All the volunteers fasted for 8 h prior to the administration of guaco syrup and blood collection. […] The anticoagulant used was tetrasodium edetate. […] The pharmacokinetic analysis was performed using a non-compartmental model, considering an extravascular administration route and using WinNonlin Professional software, version 5.3. The relationships among the areas under the curves (r areas = AUC0-t/AUC0-inf), were used to confirm the suitability of the experimental design.

[5] = test system: synthesis of nitric oxide; design: method as in PMID 21211951; conditions: LPS-induced RAW264.7 macrophages; read-out: IC50, inhibition of the synthesis of nitric oxide; cited from earlier work
[6] = test system: release of prostaglandin E2; design: method as in PMID 21211951; conditions: LPS-induced RAW264.7 macrophages; cited from earlier work
cyclooxygenase-2 = target: cyclooxygenase-2; design: method as in PMID 21211951; conditions: LPS-induced RAW264.7 macrophages; cited from earlier work
[7] = test system: carrageenan-induced paw edema; design: method as in PMID 21211951; conditions: mice, 50 mg/kg, 5 h after the induction of inflammation; cited from earlier work
[8] = test system: endothelium-intact or denuded rat aortic rings; design: method as in PMID 15178370, PMID 11864765; conditions: cited from earlier work
[9] = design: method as in PMID 7150456; conditions: cited from earlier work
[10] = 8 h at room temperature, internal standard level (6-methylcoumarin 500.0, Isoferulic acid 1000.0, Prednisone 500.0 ng/mL)
[11] = 8 h at room temperature, internal standard level, stored vs freshly prepared
[12] = 30 days at 4 °C (stock solutions), internal standard level (500.0, 1000.0, 500.0 ng/mL)
[13] = 30 days at 4 °C, internal standard level
[14] = Short-term, internal standard level
[15] = Short-term, internal standard level (500.0, 1000.0, 500.0 ng/mL)
[16] = post-preparative, internal standard level
[17] = post-preparative, internal standard level (500.0, 1000.0, 500.0 ng/mL)

Cc1ccc2oc(=O)ccc2c1 [6-methylcoumarin, reference compound]
Mean recovery [1, 10]: 497.3 ± 3.8 ng/mL | RE [1, 11]: -0.54% | Mean recovery [1, 12]: 480.6 ± 46.6 ng/mL | RE [1, 13]: -3.89% | RE [2, 14]: 0.45% | Mean recovery [2, 15]: 501.1 ± 1.6 ng/mL | RE [3, 16]: -6.38% | Mean recovery [3, 17]: 468.1 ± 22.6 ng/mL

COc1ccc(/C=C/C(=O)O)cc1O [Isoferulic acid, isoferulic acid, reference compound]
Mean recovery [1, 10]: 950.0 ± 75.2 ng/mL | RE [1, 11]: -5.00% | Mean recovery [1, 12]: 1037.5 ± 68.1 ng/mL | RE [1, 13]: 3.75% | RE [2, 14]: -0.07% | Mean recovery [2, 15]: 999.3 ± 62.2 ng/mL | RE [3, 16]: -1.35% | Mean recovery [3, 17]: 986.5 ± 31.7 ng/mL

C=C1C[C@@]23CC[C@H]4[C@@](C)(CCC[C@@]4(C)C(=O)O)[C@@H]2CC[C@@H]1C3 [KAU, kaurenoic acid]
plasma levels after guaco syrup without spiking [4]: did not provide sufficient levels | Mean recovery ([1]; 8 h at room temperature, high level (Coumarin 1250.0, 7-hydroxycoumarin 750.0, o-coumaric acid 750.0, Kaurenoic acid 500.0 ng/mL)): 516.6 ± 5.1 ng/mL | RE ([1]; 8 h at room temperature, high level, stored vs freshly prepared): 3.33% | Mean recovery ([1]; 8 h at room temperature, low level (Coumarin 50.0, 7-hydroxycoumarin 12.5, o-coumaric acid 25.0, Kaurenoic acid 10.0 ng/mL)): 10.2 ± 0.7 ng/mL | RE ([1]; 8 h at room temperature, low level, stored vs freshly prepared): 8.94% | Mean recovery ([1]; 30 days at 4 °C (stock solutions), high level (1250.0, 750.0, 750.0, 500.0 ng/mL)): 487.8 ± 34.9 ng/mL | Mean recovery ([1]; 30 days at 4 °C (stock solutions), low level (50.0, 12.5, 25.0, 10.0 ng/mL)): 9.75 ± 0.6 ng/mL | RE ([1]; 30 days at 4 °C, high level): 3.33% | RE ([1]; 30 days at 4 °C, low level): -2.46% | Mean recovery ([2]; Long-term: plasma at -40°C, 60 days, high level (1250.0, 750.0, 750.0, 500.0 ng/mL)): 463.2 ± 12.3 ng/mL | Mean recovery ([2]; Long-term: plasma at -40°C, 60 days, low level (50.0, 12.5, 25.0, 10.0 ng/mL)): 8.8 ± 0.3 ng/mL | RE ([2]; Long-term, high level): -7.36% | RE ([2]; Long-term, low level): -11.70% | Mean recovery ([2]; Short-term: plasma at room temperature for 8 h, high level (1250.0, 750.0, 750.0, 500.0 ng/mL)): 498.9 ± 7.6 ng/mL | Mean recovery ([2]; Short-term: plasma at room temperature for 8 h, low level (50.0, 12.5, 25.0, 10.0 ng/mL)): 10.0 ± 0.3 ng/mL | RE ([2]; Short-term, high level): -0.22% | RE ([2]; Short-term, low level): 0.23% | RE ([2]; freeze–thaw cycles, high level): 0.49% | RE ([2]; freeze–thaw cycles, low level): -0.41% | Mean recovery ([2]; three freeze–thaw cycles, plasma, high level (1250.0, 750.0, 750.0, 500.0 ng/mL)): 502.5 ± 6.1 ng/mL | Mean recovery ([2]; three freeze–thaw cycles, plasma, low level (50.0, 12.5, 25.0, 10.0 ng/mL)): 9.9 ± 0.4 ng/mL | Mean recovery ([3]; post-preparative: extracted samples 24 hours at 20°C, high level (1250.0, 750.0, 750.0, 500.0 ng/mL)): 509.8 ± 6.6 ng/mL | Mean recovery ([3]; post-preparative: extracted samples 24 hours at 20°C, low level (50.0, 12.5, 25.0, 10.0 ng/mL)): 9.8 ± 0.4 ng/mL | RE ([3]; post-preparative, high level): 1.96% | RE ([3]; post-preparative, low level): -1.70% | IC50 [5]: 51.7 µM | IC50 [6]: 106 µM | IC50, expression of cyclooxygenase-2 activity (cyclooxygenase-2): 3.5 µg/mL | reduction of the swelling [7]: 34.4% | concentration promoting vasodilatory effects in rat aortas ([8]; endothelium-intact or denuded rings): greater than 10 mM | concentration with concentration-dependent activity on vascular smooth muscle ([8]; rat aortic rings pre-contracted with phenylephrine and potassium chloride): ≥ 10 µM

C[C@]12C=CC(=O)C=C1CC[C@@H]1[C@@H]2C(=O)C[C@@]2(C)[C@H]1CC[C@]2(O)C(=O)CO [Prednisone, prednisone, reference compound]
Mean recovery [1, 10]: 470.5 ± 26.6 ng/mL | RE [1, 11]: -5.90% | Mean recovery [1, 12]: 497.0 ± 13.9 ng/mL | RE [2, 14]: 0.43% | Mean recovery [2, 15]: 502.2 ± 11.1 ng/mL | RE [3, 16]: -4.14% | Mean recovery [3, 17]: 479.3 ± 16.9 ng/mL

Cn1c(=O)c2[nH]cnc2n(C)c1=O [theophylline]
clearance [9]: 2.8 L/h
